Source: US9573961B2, “Inhibitors of the renal outer medullary potassium channel” (Merck Sharp & Dohme Corp., priority 2012, dated 2017)
Like-named read-outs stand apart in the source and are kept apart here.

Tests used:
[1] = molecular target: hROMK (hKir1.1) (Homo sapiens (Human), UniProt P48048); assay: Thallium Flux Assay (ROMK channel functional thallium flux, FLIPR-Tetra); format: cell-based; conditions: read-out: Thallium Flux IC50
Description: Cell Culture Conditions—HEK293 cells stably expressing hROMK (hKir1.1) were grown at 37° C. in a 10% CO2 humidified incubator in complete growth media: Dulbecco's Modified Eagle Medium supplemented with non-essential amino acids, Penicillin/Streptomycin/Glutamine, G418 and FBS. At >80% confluency, aspirate the media from the flask and rinse with 10 mL Calcium/Magnesium-free PBS. […] To dislodge the cell, gently bang the side of the flask with your hand. Triturate the cells completely and then transfer the cells to 25 mL complete media. Centrifuge at 1,500 rpm for 6 min followed by resuspension in complete growth media and determine cell concentration. […] Under ideal growth conditions and appropriate tissue culture practices, this cell line is stable for 40-45 passages.
FluxOR Kit Components (Invitrogen F10017) • FluxOR™ Reagent (Component A) • FluxOR™ Assay Buffer (Component B)—10× Concentrate • PowerLoad™ Concentrate (Component C)—100× Concentrate • Probenecid (Component D)—Lyophilized sample is kept at −20° C. Water soluble, 100× after solubilization in 1 mL water. […] Store at 4° C. • Thallium sulfate (Tl2SO4) Concentrate (Component G)—50 mM in water. Store at 4° C. • DMSO (dimethyl sulfoxide, Component H)—1 mL (100%)
Can be stored at room temperature • Stimulant Buffer (prepared at 5× final concentration in 1× FluxOR™ Chloride-Free Buffer): 7.5 mM Thallium sulfate and 0.75 mM Potassium sulfate (to give a final assay concentration of 3 mM Thallium/0.3 mM Potassium). Store at 4° C. when not in use. If kept sterile, this solution is good for months.
Assay Protocol—The ROMK channel functional thallium flux assay is performed in 384 wells, using the FLIPR-Tetra instrument. HEK-hKir1.1 cells are seeded in Poly-D-Lysine microplates and kept in a 37° C.-10% CO2 incubator overnight. On the day of the experiment, the growth media is replaced with the FluxOR™ reagent loading buffer and incubated, protected from light, at ambient temperature (23-25° C.) for 90 min. The loading buffer is replaced with assay buffer±test compound followed by 30 min incubation at ambient temperature, where the Thallium/Potassium stimulant is added to the microplate.
Step Protocol • 1. Seed HEK-hKir1.1 cells (50 μl at 20,000 cells/well) in 384-well PDL coated Microplates • 2. Allow cells to adhere overnight in humidified 37° C./10% CO2 incubator • 3. Completely remove cell growth media from microplate and replace with 25 μl loading buffer • 4. Incubate Microplate at room temperature, protected form light, for 90 min • 5. Remove loading buffer and replace with 25 μl 1× Assay Buffer±test compound. • 6. Incubate microplate at room temperature, protected from light, for 30 min • 7. […] Excitation=400 nm, Emission=460 & 580 nm. Collect data for ˜10 min.
Data Calculation—The fluorescence intensity of wells containing 3 μM of a standard control ROMK inhibitor of the present invention is used to define the ROMK-sensitive component of thallium flux. Fluorescence in the presence of test compounds is normalized to control values to provide % fluorescence change.

[2] = molecular target: Kir1.1 (ROMK1) (Homo sapiens (Human), UniProt P48048); assay: Electrophysiology Assay (whole cell voltage clamp, IonWorks Quattro); format: cell-based; conditions: block during voltage step to 0 mV
Description: Chinese hamster ovary cells stably expressing Kir1.1 channels were maintained in T-75 flasks in cell culture media in a humidified 10% CO2 incubator at 37° C. Prior to an experiment, Kir1.1 expression was induced by overnight incubation with 1 mM sodium butyrate. […] After centrifugation, the cell pellet was resuspended in approximately 4.0 mL of bath solution and placed in the IonWorks instrument. The intracellular solution consisted of (in mM): 80 K gluconate, 40 KCl, 20 KF, 3.2 MgCl2, 3 EGTA, 5 Hepes, pH 7.4. Electrical access to the cytoplasm was achieved by perforation in 0.13 mg/mL amphotericin B for 4 min. […] Voltage protocols and current recordings were performed using the IonWorks HT software/hardware system. Currents were sampled at 1 kHz. No correction for liquid junction potentials was used. The test pulse, consisting of a 100 ms step to 0 mV from a holding potential of −70 mV, followed by a 100 ms voltage ramp from −70 mV to +70 mV, was applied before and after a 6 min compound incubation period. Test compounds were prepared by diluting DMSO stock solutions into the bath solution at 3× the final concentration and placed in the instrument in 96-well polypropylene plates. Current amplitudes were measured using the IonWorks software.

[3] = HEK293 cells stably expressing hROMK (hKir1.1)
[4] = Chinese hamster ovary cells stably expressing Kir1.1, read-out: Electrophysiology IC50
[5] = Electrophysiology IC50, Chinese hamster ovary cells stably expressing Kir1.1

Chain of hROMK (hKir1.1) (P48048 whole entry): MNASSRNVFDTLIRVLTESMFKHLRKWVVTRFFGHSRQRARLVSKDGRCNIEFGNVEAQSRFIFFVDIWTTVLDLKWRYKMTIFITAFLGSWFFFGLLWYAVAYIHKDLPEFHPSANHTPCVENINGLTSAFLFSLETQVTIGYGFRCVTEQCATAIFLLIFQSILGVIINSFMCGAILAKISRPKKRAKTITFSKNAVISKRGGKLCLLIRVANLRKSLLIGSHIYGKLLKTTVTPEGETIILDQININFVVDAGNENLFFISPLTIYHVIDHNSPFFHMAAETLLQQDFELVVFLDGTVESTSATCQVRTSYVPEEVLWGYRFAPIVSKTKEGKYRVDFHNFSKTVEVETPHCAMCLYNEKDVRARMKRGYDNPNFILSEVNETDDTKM
Chain of Kir1.1 (ROMK1) (P48048 whole entry): as above

Row | Compound | IC50 [1, 3] [nM] | IC50 [2, 4] [nM] | IC50 [2, 5] [nM] | IC50 [1] [nM]
1 | Cc1c([C@H]2CN3CCN(C(=O)C4CCc5cc(-n6cnnn6)ccc54)C[C@H]3CO2)ccc2c1COC2=O (single isomer, unassigned) [Example 81] | 230 | 260 |  | 
2 | Cc1c([C@@H]2CN3CCN(C(=O)C4CCc5cc(-n6cnnn6)ccc54)C[C@H]3CO2)csc1C#N (single isomer, unassigned) [Example 82] | 330 | 110 |  | 
3 | Cc1c([C@@H]2CN3CCN(C(=O)C4CCc5cc(-n6cnnn6)ccc54)C[C@H]3CO2)csc1C#N (single isomer, unassigned) [Example 83] | 140 | 90 |  | 
4 | Cc1c([C@H]2CN3CCN(C(=O)C4CCCc5cc(-n6cnnn6)ccc54)C[C@H]3CO2)ccc2c1COC2=O (single isomer, unassigned) [Example 88] | 380 | 460 |  | 
5 | Cc1c([C@@H]2CN3CCN(C(=O)C4CCCc5cc(-n6cnnn6)ccc54)C[C@H]3CO2)ccc2c1COC2=O (single isomer, unassigned) [Example 89] | 490 | 460 |  | 
6 | O=C1OCCc2cc([C@@H]3CN4CCN(C(=O)C5CCCc6cc(-n7cnnn7)ccc65)C[C@H]4CO3)ccc21 (single isomer, unassigned) [Example 90] | 430 | 260 |  | 
7 | Cc1c([C@@H]2CN3CCN(C(=O)C4CCCc5cc(-n6cnnn6)ccc54)C[C@H]3CO2)csc1C#N (single isomer, unassigned) [Example 96] | 460 | 190 |  | 
8 | Cc1c([C@H]2CN3CCN(C(=O)C4CCCc5cc(-n6cnnn6)ccc54)C[C@H]3CO2)csc1C#N (single isomer, unassigned) [Example 97] | 620 | 280 |  | 
9 | Cc1c([C@H]2CN3CCN(C(=O)C4CCc5cc(-n6cnnn6)ccc54)C[C@H]3CO2)ccc(F)c1C#N (single isomer, unassigned) [Example 98] | 170 | 140 |  | 
10 | Cc1c([C@@H]2CN3CCN(C(=O)Cc4ccc(-n5cnnn5)cc4)C[C@H]3CO2)ccc2c1COC2=O [Example 1A, 4-methyl-5-[(3R,9aS)-8-{[4-(1H-tetrazol-1-yl)phenyl]acetyl}octahydropyrazino[2,1-c][1,4]oxazin-3-yl]-2-benzofuran-1(3H)-one] | 30 |  | 100 | 
11 | COc1cc(CC(=O)N2CCN3C[C@@H](c4ccc5c(c4)COC5=O)OC[C@@H]3C2)c(F)cc1C#N [Example 10, 5-fluoro-2-methoxy-4-{2-oxo-2-[(3R,9aS)-3-(1-oxo-1,3-dihydro-2-benzofuran-5-yl)hexahydropyrazino[2,1-c][1,4]oxazin-8(1H)-yl]ethyl}benzonitrile] | 130 |  | 90 | 
12 | Cc1c([C@@H]2CN3CCN(C(=O)Cc4ccc(-n5cnnn5)cc4)C[C@@H]3CO2)ccc2c1COC2=O [Example 13, 4-methyl-5-[(3R,9aR)-8-{[4-(1H-tetrazol-1-yl)phenyl]acetyl}octahydropyrazino[2,1-c][1,4]oxazin-3-yl]-2-benzofuran-1(3H)-one] | 120 |  | 150 | 
13 | Cc1c([C@H]2CN3CCN(C(=O)Cc4ccc(-n5cnnn5)cc4)C[C@@H]3CO2)ccc2c1COC2=O [Example 14, 4-methyl-5-[(3S,9aR)-8-{[4-(1H-tetrazol-1-yl)phenyl]acetyl}octahydropyrazino[2,1-c][1,4]oxazin-3-yl]-2-benzofuran-1(3H)-one] | 110 |  | 140 | 
14 | O=C1OCCc2cc([C@@H]3CN4CCN(C(=O)Cc5ccc(-n6cnnn6)cc5)C[C@H]4CO3)ccc21 [Example 15, 6-[(3R,9aS)-8-{[4-(1H-tetrazol-1-yl)phenyl]acetyl}octahydropyrazino[2,1-c][1,4]oxazin-3-yl]-3,4-dihydro-1H-isochromen-1-one] |  | 80 |  | 50
15 | COc1cc([C@H]2CN3CCN(C(=O)Cc4ccc(-n5cnnn5)cc4)C[C@@H]3CO2)ccc1C#N [Example 18, 2-methoxy-4-[(3S,9aR)-8-{[4-(1H-tetrazol-1-yl)phenyl]acetyl}octahydropyrazino[2,1-c][1,4]oxazin-3-yl]benzonitrile] | 250 |  | 110 | 
16 | COc1cc([C@@H]2CN3CCN(C(=O)Cc4ccc(-n5cnnn5)cc4)C[C@@H]3CO2)ccc1C#N [Example 19, 2-methoxy-4-[(3R,9aR)-8-{[4-(1H-tetrazol-1-yl)phenyl]acetyl}octahydropyrazino[2,1-c][1,4]oxazin-3-yl]benzonitrile] | 170 |  | 70 | 
17 | O=C1OCc2c1ccc([C@@H]1CN3CCN(C(=O)Cc4ccc(-n5cnnn5)cc4)C[C@H]3CO1)c2Cl [Example 20, 4-chloro-5-[(3R,9aS)-8-{[4-(1H-tetrazol-1-yl)phenyl]acetyl}octahydropyrazino[2,1-c][1,4]oxazin-3-yl]-2-benzofuran-1(3H)-one] | 580 |  | 60 | 
18 | O=C1OCc2c1ccc([C@H]1CN3CCN(C(=O)Cc4ccc(-n5cnnn5)cc4)C[C@H]3CO1)c2Cl [Example 21, 4-chloro-5-[(3S,9aS)-8-{[4-(1H-tetrazol-1-yl)phenyl]acetyl}octahydropyrazino[2,1-c][1,4]oxazin-3-yl]-2-benzofuran-1(3H)-one] | 100 |  | 100 | 
19 | Cc1c([C@H]2CN3CCN(C(=O)Cc4ccc5c(c4)COC5=O)C[C@H]3CO2)ccc(F)c1C#N [Example 23, 6-fluoro-2-methyl-3-{(3S,9aS)-8-[(1-oxo-1,3-dihydro-2-benzofuran-5-yl)acetyl]octahydropyrazino[2,1-c][1,4]oxazin-3-yl}benzonitrile] |  |  | 70 | 70
20 | Cc1c([C@@H]2CN3CCN(C(=O)Cc4ccc5c(c4)COC5=O)C[C@H]3CO2)ccc(F)c1C#N [Example 24, 6-fluoro-2-methyl-3-{(3R,9aS)-8-[(1-oxo-1,3-dihydro-2-benzofuran-5-yl)acetyl]octahydropyrazino[2,1-c][1,4]oxazin-3-yl}benzonitrile] |  |  | 80 | 60
21 | COc1ccc([C@@H]2CN3CCN(C(=O)Cc4ccc(-n5cnnn5)cc4)C[C@H]3CO2)c(F)c1C#N [Example 25, 2-fluoro-6-methoxy-3-[(3R,9aS)-8-{[4-(1H-tetrazol-1-yl)phenyl]acetyl}octahydropyrazino[2,1-c][1,4]oxazin-3-yl]benzonitrile] | 150 | 200 |  | 
22 | COc1ccc([C@@H]2CN3CCN(C(=O)Cc4ccc(-n5cnnn5)cc4)C[C@H]3CO2)c(C)c1C#N [Example 26, 6-methoxy-2-methyl-3-[(3R,9aS)-8-{[4-(1H-tetrazol-1-yl)phenyl]acetyl}octahydropyrazino[2,1-c][1,4]oxazin-3-yl]benzonitrile] | 140 | 260 |  | 
